Test results reported in PubChem BioAssay AID687005 (Broad Institute, 2013).
Inconclusive results are not listed. Activity calls are given as the source filed them.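 Rule for the calls: active = Compounds that reduce signal, with fitted half-maximal dose at or under twice the top valid tested dose; inconclusive = Poor fit, or flat curve losing 30 to 70% of signal; inactive = Potency past limit, flat within 30%, or opposite direction.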

Experiment: viability loss in HEK293T cells – cell-based, ATP luminescence, cherry-pick samples, cytotoxicity control, dose response (AID 687005)
Conditions: HEK293T viability, ATP luminescence (CellTiter-Glo), 48 h

SMILES	activity change, negative = cytotoxicity (at 26 µM (top of the series))	also measured
C[C@H](CO)N1C[C@H](C)[C@H](CN(C)C(=O)Nc2ccc3c(c2)OCO3)Oc2ncc(C#CC(C)(C)O)cc2C1=O		activity change, negative = cytotoxicity (at 23.5 µM (top of the series)): -10.7% (inactive)
CCCNC(=O)C[C@H]1C[C@H]2c3cc(NC(=O)Nc4ccc(OC)cc4)ccc3O[C@H]2[C@@H](CO)O1	-21% (inactive)	
CCC(C)(C(=O)Nc1cccc(C)c1)N1CCC1=O (configuration not stated)		activity change, negative = cytotoxicity (at 46 µM (top of the series)): 0.095% (inactive)
C[C@@H]1CCCCO[C@@H](CN(C)CC2CCCCC2)[C@@H](C)CN([C@@H](C)CO)C(=O)c2cc(NS(=O)(=O)c3ccccc3)ccc2O1		activity change, negative = cytotoxicity (at 23.5 µM (top of the series)): -40.3% (inactive)
CNC(=O)CSc1ncnc2c1cnn2-c1ccccc1	10.1% (inactive)	
COc1ccccc1CNC(=O)C[C@@H]1C[C@@H]2c3cc(NC(=O)Nc4ccccc4F)ccc3O[C@@H]2[C@H](CO)O1	15.8% (inactive)	
C[C@H](O)C#Cc1ccc([C@H]2[C@H](CO)N3CCCCN(CC4CCOCC4)C[C@@H]23)cc1	21.6% (inactive)	
CC=Cc1ccc2n(c1=O)C[C@H]1[C@H](CO)[C@@H](C(=O)N3CCc4ccccc4C3)N(C(=O)C3CC3)[C@@H]21 (mixture of isomers)	-9.72% (inactive)	
Cc1c(C(=O)NC(=S)Nc2ccccc2N2CCCC2)cccc1[N+](=O)[O-]	-4.96% (inactive)	
Cc1ccc(C(=O)NC(=S)Nc2ccccc2N2CCCC2)cc1[N+](=O)[O-]	-8.33% (inactive)	
COCC(=O)Nc1ccc2c(c1)C(=O)N(C)C[C@H](OC)[C@@H](C)CN(C(=O)c1ccccc1)[C@@H](C)CO2	13.6% (inactive)	
CCC(=O)N1[C@H](CO)[C@H](c2ccccc2)[C@@H]1CN(CC)C(=O)c1cccc(F)c1	25% (inactive)	
COC(=O)N(C)C[C@H]1OCc2cn(nn2)CCCC(=O)N([C@H](C)CO)C[C@@H]1C	-11% (inactive)	
Cc1cccc(OCC(=O)NCc2ccccc2)c1	-36.8% (inactive)	
CCCN1C[C@H](C)[C@@H](OC)CN(C)C(=O)c2cc(NC(=O)c3cccc(F)c3)ccc2OC[C@H]1C	10.2% (inactive)	
CC(C)(C)SCCNC(=O)CN(c1ccccc1)S(=O)(=O)c1ccc(F)cc1	-6.34% (inactive)	
CN(C)C(=O)c1ccc(-c2ccc([C@H]3[C@H](CO)N4CCCCN(CCC(F)(F)F)C[C@@H]34)cc2)cc1	-23.6% (inactive)	
CNC(=O)CN(c1ccccc1)S(=O)(=O)c1ccc(F)cc1		activity change, negative = cytotoxicity (at 28.5 µM (top of the series)): -7.63% (inactive)
O=c1nc(-c2ccccc2)c2ccccc2[nH]1	1.46% (inactive)	
CNC[C@@H]1Oc2c(NS(=O)(=O)c3ccc(Cl)cc3)cccc2C(=O)N([C@H](C)CO)C[C@H]1C	24.2% (inactive)	
CN1C(=O)c2cc(NS(=O)(=O)c3cccc(F)c3)ccc2OC[C@@H]2O[C@@H](CC(=O)O)CC[C@H]21	-21.4% (inactive)	
Cc1cccc(C)c1NC(=O)C1NC(=O)CC1c1ccccc1 (configuration not stated)		activity change, negative = cytotoxicity (at 42 µM (top of the series)): 0.826% (inactive)
CCNC(=O)Nc1ccc2c(c1)C(=O)N(C)[C@H]1CC[C@H](CC(=O)N[C@@H](C)c3ccccc3)O[C@H]1CO2	75.7% (inactive)	
CC(=O)NC[C@@H]1[C@@H](c2ccc(C3=CCCC3)cc2)[C@@H](CO)N1C(=O)NC(C)C	6.26% (inactive)	
O=C(O)C[C@@H]1CC[C@@H]2[C@H](COC[C@H](O)CN2S(=O)(=O)c2ccc(F)cc2)O1	-25.9% (inactive)	
C[C@H]1CN([C@@H](C)CO)C(=O)Cc2cc(NS(=O)(=O)c3ccc(F)cc3)ccc2O[C@@H]1CN(C)S(=O)(=O)c1ccc(F)cc1	-11.2% (inactive)	
C[C@@H]1CN([C@@H](C)CO)C(=O)c2cc(-c3ccc(C#N)cc3)cnc2O[C@@H]1CN(C)C(=O)Nc1ccc(F)cc1	5.67% (inactive)	
